Results: US20260176285A1, “SALT OF DIOXANE QUINOLINE COMPOUND, CRYSTAL FORM THEREOF, PREPARATION METHODS THEREFOR AND USES THEREOF” (Beijing Scitech-MQ Pharmaceuticals Limited, priority 2022, published 2026)

How the values were obtained:
[1] = Dynamic solubility in water, SGF, FaSSIF and FeSSIF; type: physicochemical; set-up: S (dynamic solubility): unit not given here; conditions: listed as Phosphate salt crystal form A-V; for S (dynamic solubility): 37° C., feed 10 mg/mL
How it was run: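 Free form and salt crystal forms tested over time in water, SGF (pH 1.8), FaSSIF (pH 6.5) and FeSSIF (pH 5.0), simulated fluids made with SIF powder. At each time point samples were centrifuged, passed through 0.45 μm PTFE, and filtrate concentration (HPLC) and pH measured.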

[2] = Hygroscopicity by dynamic moisture sorption (DVS); type: physicochemical; conditions: DVS, listed as Phosphate salt crystal form A-V
How it was run: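 Mass change of salt and free-form crystal samples recorded at 25° C over a 0% RH-95% RH-0% RH cycle. Steps were 10% RH (last step 5%) with a dm/dt equilibrium criterion of 0.002%/min.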

[3] = Solid-state stability evaluation (XRPD, HPLC); type: physicochemical; conditions: listed as Phosphate salt crystal form A-V
Description: The following 6 test samples were placed under 25° C./60% RH and 40° C./75% RH conditions for 1 week, and then the physical and chemical stability of the samples was tested by XRPD and HPLC.
At the same time, after the p-toluenesulfonate salt crystal form A-II and crystal form B-III solids were placed at 80° C. for 24 hours, the physical and chemical stability of the samples were tested by XRPD and HPLC.

[4] = system: human lung cancer cells EBC-1; test: Efficacy in nude mouse tumor-bearing model of human lung cancer cells EBC-1; type: in vivo, Balb/c nude mouse
Text: In this assay, the free compound of formula (I) of the present application and different salts of the compound prepared in Examples 1, 2 and 5 were orally administered to a nude mouse tumor-bearing model of human lung cancer cells EBC-1 to study their effects on tumor growth.
Preparation of test compounds: an appropriate weight of the test compound (including the free form of the compound of formula (I) and different salts of the compound prepared in Examples 1, 2 and 5) was weighed, completely suspended/dissolved in an appropriate volume of 0.1% sodium carboxymethyl cellulose, stirred and vortexed to give a uniform solution or suspension.
Methods: All assays were authorized by the Animal Welfare Committee. EBC-1 in the logarithmic growth phase was inoculated into immune-deficient nude mice (BALB/c nude, female, 6-8 weeks old, weighing 18±2 g), subcutaneously on the right back, with a cell inoculation amount of 5×10^6/mouse. After the tumor grew to 150-200 mm^3, the animals were randomly divided into groups, 6 mice per group. The dose of each test substance was set at 15 mg/kg and 7.5 mg/kg (both based on the concentration of the effective formula (I) compound), and administered once a day for about 3 weeks. The test compounds were freshly prepared each day before use. During the assay, the tumor diameter was measured twice a week, and the mice were weighed at the same time. The calculation formula of tumor volume (TV) is: TV=1/2×a×b^2, where a and b represent length and width, respectively. The relative tumor volume (RTV) was calculated based on the measurement results, and the calculation formula is: RTV=Vt/V0, wherein V0 is the tumor volume measured at the time of cage grouping and dosing initiation (i.e., d0), and Vt is the tumor volume at each measurement. The evaluation index of antitumor activity is the relative tumor proliferation rate T/C (%), calculated as follows: T/C (%)=(TRTV/CRTV)×100%, TRTV: RTV of the treatment group; CRTV: RTV of the negative control group. T and C represent the average tumor volume at a certain time point in the drug administration group and the control group, respectively.

O=C(Nc1ccc(F)cc1)C1(C(=O)Nc2ccc(Oc3ccnc4cc(OCCCN5CCOCC5)c5c(c34)OCCO5)c(F)c2)CC1 [Example 5, N-(3-fluoro-4-((5-(3-morpholinopropoxy)-2,3-dihydro-[1,4]dioxano[2,3-f]quinolin-10-yl)oxy)phenyl)-N-(4-fluorophenyl)cyclopropane-1,1-dicarboxamide]
S (dynamic solubility) ([1]; FaSSIF, 1 hour): 0.028 | pH of the filtrate ([1]; FaSSIF, 1 hour): 5.8 | S (dynamic solubility) ([1]; FaSSIF, 2 hours): 0.030 | pH of the filtrate ([1]; FaSSIF, 2 hours): 5.8 | S (dynamic solubility) ([1]; FaSSIF, 4 hours): 0.024 | pH of the filtrate ([1]; FaSSIF, 4 hours): 5.8 | S (dynamic solubility) ([1]; FaSSIF, 24 hours): 0.080 | pH of the filtrate ([1]; FaSSIF, 24 hours): 5.3 | S (dynamic solubility) ([1]; FeSSIF, 1 hour): 1.5 | pH of the filtrate ([1]; FeSSIF, 1 hour): 4.9 | S (dynamic solubility) ([1]; FeSSIF, 2 hours): 1.4 | pH of the filtrate ([1]; FeSSIF, 2 hours): 5.0 | S (dynamic solubility) ([1]; FeSSIF, 4 hours): 1.3 | pH of the filtrate ([1]; FeSSIF, 4 hours): 5.0 | S (dynamic solubility) ([1]; FeSSIF, 24 hours): 0.20 | pH of the filtrate ([1]; FeSSIF, 24 hours): 5.0 | S (dynamic solubility) ([1]; H2O, 1 hour): 2.5 | pH of the filtrate ([1]; H2O, 1 hour): 4.5 | S (dynamic solubility) ([1]; H2O, 2 hours): 2.6 | pH of the filtrate ([1]; H2O, 2 hours): 4.5 | S (dynamic solubility) ([1]; H2O, 4 hours): 2.4 | pH of the filtrate ([1]; H2O, 4 hours): 4.5 | S (dynamic solubility) ([1]; H2O, 24 hours): 2.5 | pH of the filtrate ([1]; H2O, 24 hours): 4.4 | S (dynamic solubility) ([1]; SGF, 1 hour): 6.9 | pH of the filtrate ([1]; SGF, 1 hour): 2.7 | S (dynamic solubility) ([1]; SGF, 2 hours): completely dissolved | S (dynamic solubility) ([1]; SGF, 4 hours): completely dissolved | S (dynamic solubility) ([1]; SGF, 24 hours): 6.4 | pH of the filtrate ([1]; SGF, 24 hours): 2.7 | Moisture adsorption (25° C./80% RH) ([2]; 25° C./80% RH): 6.43% | Hygroscopicity ([2]; 25° C.): Hygroscopic | Purity ([3]; 25° C./60% RH, 1 week): 99.13 area % | Purity ([3]; 40° C./75% RH, 1 week): 99.13 area % | Purity ([3]; Starting): 99.23 area % | T/C (relative tumor proliferation rate) ([4]; 7.5 mg/kg oral once a day, day 3): 97.1% | T/C (relative tumor proliferation rate) ([4]; 7.5 mg/kg oral once a day, day 7): 80.6% | T/C (relative tumor proliferation rate) ([4]; 7.5 mg/kg oral once a day, day 10): 76.3% | T/C (relative tumor proliferation rate) ([4]; 7.5 mg/kg oral once a day, day 14): 68.2% | T/C (relative tumor proliferation rate) ([4]; 7.5 mg/kg oral once a day, day 18): 66.5% | T/C (relative tumor proliferation rate) ([4]; 7.5 mg/kg oral once a day, day 21): 58.8% | T/C (relative tumor proliferation rate) ([4]; 15 mg/kg oral once a day, day 3): 76.0% | T/C (relative tumor proliferation rate) ([4]; 15 mg/kg oral once a day, day 7): 49.9% | T/C (relative tumor proliferation rate) ([4]; 15 mg/kg oral once a day, day 10): 43.8% | T/C (relative tumor proliferation rate) ([4]; 15 mg/kg oral once a day, day 14): 37.1% | T/C (relative tumor proliferation rate) ([4]; 15 mg/kg oral once a day, day 18): 33.0% | T/C (relative tumor proliferation rate) ([4]; 15 mg/kg oral once a day, day 21): 26.2%
